Assay results published in patent US8586555B2, “Immunomodulatory compositions, formulations, and methods for use thereof” (Dynavax Technologies Corporation, priority 2001, dated 2013).

What was measured:
Type in all cases: cell-based
[1] = tested on: human peripheral blood mononuclear cells (hPBMC); test: human PBMC assay, Example 5 (96 well plates, premixed); settings: for IFN-α Mean / IFN-γ Mean: mean of donors 28051-28054
Experimental: (§1) Hexameric oligonucleotides were tested for immunomodulatory activity alone and complexed with lactic acid/glycolic acid copolymer microcarrier beads using a human peripheral blood mononuclear cells (hPBMC) assay. Peripheral blood was collected from healthy volunteers by venipuncture using heparinized syringes. Blood was layered onto a FICOLL® (Amersham Pharmacia Biotech) cushion and centrifuged. hPBMCs, located at the FICOLL® interface, were collected, then washed twice with cold phosphate buffered saline (PBS). The cells were resuspended and cultured in 48 well plates at 2×10^6 cells/mL at 37° C. in RPMI 1640 with 10% heat-inactivated human AB serum plus 50 units/mL penicillin, 50 μg/mL streptomycin, 300 μg/mL glutamine, 1 mM sodium pyruvate, and 1×MEM non-essential amino acids (NEAA).
(§2) Oligonucleotides were tested as single agents, or in combination with PLGA microspheres (unmodified or cationic). All oligonucleotides contained 100% phosphorothioate linkages and were tested at 20 μg/ml. The PLGA microcarriers were used at 250 μg/ml. When oligos were tested with PLGA microcarriers, the oligo and the microcarriers were added at the same time to the culture. The cells were cultured in the in the presence of test samples for 24 hours, then cell-free medium was collected from each well and assayed for IFN-γ and IFN-α concentration. Two different oligonucleotides were used as controls: a first oligonucleotide known to have immunostimulatory activity (a 22mer oligonucleotide containing an ISS (“ISS+,” 5′-[…]-3′(SEQ ID NO:2)) and a second oligonucleotide of similar sequence but lacking immunostimulatory activity (“ISS−,” 5′-[…]-3′ (SEQ ID NO:1)). SAC (PANSORBIN® CalBiochem, 1/5000 dilution) and a untreated culture were used as additional positive and negative controls, respectively. SAC contains Staph. aureus (Cowan I) cell material. All samples were assayed in duplicate.
(§3) IFN-γ and IFN-α were assayed using CYTOSCREEN™ ELISA kits from BioSource International, Inc., according to the manufacturer's instructions.
(§4) The immunomodulatory activity of the oligonucleotides used in Examples 3 and 4 was confirmed with the human PBMC assay using PBMCs from an additional four donors (donors 28051-28054). Oligonucleotides were tested alone or in combination with cationic PLGA as described in Example 3, except that 96 well plates were used instead of 48 well plates and the oligonucleotides were premixed with the cationic microspheres at room temperature for 15 minutes before they were added to the culture, rather than being added simultaneously to the culture.

[2] = tested on: human peripheral blood mononuclear cells (hPBMC); test: human PBMC assay, Example 4 (oligos and PLGA premixed 15 minutes); settings: for IFN-α Mean / IFN-γ Mean: mean of donors 28044, 28045
Experimental: as §1, §2, §3
Additional hexameric and pentameric oligonucleotides were tested for immunomodulatory activity in the PBMC assay. Oligonucleotides 6-6 (5′-TCGAGA-3′), 6-8 (5′-GTCGAC-3′), 6-9 (5′-GTCGTT-3′), 6-2 (5′-TCGTTT-3′), 6-3 (5′-TTCGTT-3′), 6-4 (5′-TTTCGT-3′), 5-1 (5′-TCGTC-3′), and 5-2 (5′-TCGTT-3′) were tested alone or in combination with cationic PLGA as described in Example 3 except that the oligos and PLGA were premixed for 15 minutes room temperature before addition to the cultures. The test articles were assayed using PBMC isolated from donors 28044 and 28045.

[3] = tested on: human peripheral blood mononuclear cells (hPBMC); test: human PBMC assay, Example 7 (oligo 20 μg/ml, cPLGA 100 μg/ml)
Experimental: as §1, §2, §3, §4
Additional oligonucleotides, some incorporating modified bases, were tested for immunomodulatory activity in the human PBMC assay. Oligonucleotides were tested alone or in combination with cPLGA as described in Example 5. The oligonucleotides were premixed with the cationic PLGA microspheres for 15 minutes at room temperature at concentrations of 20 μg/ml and 100 μg/ml, respectively.

[4] = tested on: human peripheral blood mononuclear cells (hPBMC); test: human PBMC assay, Example 3 (oligo and PLGA added at the same time, 48 well plates); settings: for IFN-α / IFN-γ: oligo 20 μg/ml, PLGA 250 μg/ml, 24 hours
Experimental: as §1, §2, §3

[5] = delivered as IMO/MC complexes (cPLGA)

5′-TCGAGA-3′ [Oligonucleotide 6-6]
immunomodulatory activity ([1]; delivered alone): inactive | immunomodulatory activity [1, 5]: highly active | IFN-α ([1]; donor 28051): 1 pg/mL | IFN-γ ([1]; donor 28051): 2 pg/mL | IFN-α ([1]; donor 28052): 4 pg/mL | IFN-γ ([1]; donor 28052): 2 pg/mL | IFN-α ([1]; donor 28053): 0 pg/mL | IFN-γ ([1]; donor 28053): 1 pg/mL | IFN-α ([1]; donor 28054): 10 pg/mL | IFN-γ ([1]; donor 28054): 2 pg/mL | IFN-α Mean [1]: 4 pg/mL | IFN-γ Mean [1]: 2 pg/mL | IFN-α ([2]; donor 28044): 0 pg/mL | IFN-γ ([2]; donor 28044): 0 pg/mL | IFN-α ([2]; donor 28045): 0 pg/mL | IFN-γ ([2]; donor 28045): 0 pg/mL | IFN-α Mean [2]: 0 pg/mL | IFN-γ Mean [2]: 0 pg/mL

5′-TCGTT-3′ [Oligonucleotide 5-2]
immunomodulatory activity ([1]; delivered alone): inactive | immunomodulatory activity [1, 5]: highly active | IFN-α ([1]; donor 28051): 1 pg/mL | IFN-γ ([1]; donor 28051): 1 pg/mL | IFN-α ([1]; donor 28052): 5 pg/mL | IFN-γ ([1]; donor 28052): 0 pg/mL | IFN-α ([1]; donor 28053): 0 pg/mL | IFN-γ ([1]; donor 28053): 0 pg/mL | IFN-α ([1]; donor 28054): 2 pg/mL | IFN-γ ([1]; donor 28054): 1 pg/mL | IFN-α Mean [1]: 2 pg/mL | IFN-γ Mean [1]: 0 pg/mL | immunomodulatory activity ([3]; combined with cPLGA): active in two of four donors | IFN-α ([3]; donor 28115): 0 pg/mL | IFN-γ ([3]; donor 28115): 8 pg/mL | IFN-α ([3]; donor 28116): 0 pg/mL | IFN-γ ([3]; donor 28116): 4 pg/mL | IFN-α ([3]; donor 28117): 0 pg/mL | IFN-γ ([3]; donor 28117): 8 pg/mL | IFN-α ([3]; donor 28118): 0 pg/mL | IFN-γ ([3]; donor 28118): 0 pg/mL | IFN-α Mean ([3]; mean of donors 28115-28118): 0 pg/mL | IFN-γ Mean ([3]; mean of donors 28115-28118): 5 pg/mL | IFN-α ([2]; donor 28044): 0 pg/mL | IFN-γ ([2]; donor 28044): 4 pg/mL | IFN-α ([2]; donor 28045): 0 pg/mL | IFN-γ ([2]; donor 28045): 0 pg/mL | IFN-α Mean [2]: 0 pg/mL | IFN-γ Mean [2]: 2 pg/mL

5′-TTCGTT-3′ [Oligonucleotide 6-3]
immunomodulatory activity ([1]; delivered alone): inactive | immunomodulatory activity [1, 5]: highly active | IFN-α ([1]; donor 28051): 0 pg/mL | IFN-γ ([1]; donor 28051): 1 pg/mL | IFN-α ([1]; donor 28052): 5 pg/mL | IFN-γ ([1]; donor 28052): 0 pg/mL | IFN-α ([1]; donor 28053): 5 pg/mL | IFN-γ ([1]; donor 28053): 5 pg/mL | IFN-α ([1]; donor 28054): 0 pg/mL | IFN-γ ([1]; donor 28054): 0 pg/mL | IFN-α Mean [1]: 3 pg/mL | IFN-γ Mean [1]: 2 pg/mL | IFN-α ([2]; donor 28044): 0 pg/mL | IFN-γ ([2]; donor 28044): 6 pg/mL | IFN-α ([2]; donor 28045): 0 pg/mL | IFN-γ ([2]; donor 28045): 0 pg/mL | IFN-α Mean [2]: 0 pg/mL | IFN-γ Mean [2]: 3 pg/mL

5′-ATCGAT-3′ [Oligonucleotide 6-7]
immunomodulatory activity ([1]; delivered alone): inactive | immunomodulatory activity [1, 5]: highly active | IFN-α ([1]; donor 28051): 1 pg/mL | IFN-γ ([1]; donor 28051): 1 pg/mL | IFN-α ([1]; donor 28052): 0 pg/mL | IFN-γ ([1]; donor 28052): 1 pg/mL | IFN-α ([1]; donor 28053): 4 pg/mL | IFN-γ ([1]; donor 28053): 2 pg/mL | IFN-α ([1]; donor 28054): 1 pg/mL | IFN-γ ([1]; donor 28054): 2 pg/mL | IFN-α Mean [1]: 2 pg/mL | IFN-γ Mean [1]: 1 pg/mL | IFN-α ([4]; donor 28033): 8 pg/mL | IFN-γ ([4]; donor 28033): 0 pg/mL | IFN-α ([4]; donor 28034): 22 pg/mL | IFN-γ ([4]; donor 28034): 3 pg/mL | immunomodulatory activity ([4]; in combination with cationic PLGA): active | IFN-α Mean ([4]; mean of donors 28033, 28034): 15 pg/mL | IFN-γ Mean ([4]; mean of donors 28033, 28034): 2 pg/mL
